The source of these data is ChEMBL document CHEMBL5500324, “The potential of marine-derived piperazine alkaloids: Sources, structures and bioactivities” (Eur J Med Chem, 2024).

≈ marks a conversion by molar mass, not a printed value.

What all share (format): functional, cell-based
One assay relates to PC-3. The assay is described as follows: Cytotoxicity against human PC-3 cells assessed as reduction in cell growth incubated for 48 hrs by CCK-8 assay. Particulars: PC-3, 48 h.
The subject of another assay is U-937. Put plainly: Cytotoxicity against human U-937 cells assessed as reduction in cell growth incubated for 48 hrs by CCK-8 assay. Particulars: U-937, 48 h. For orientation: Tetrazolium dyes change colour on reduction, which living cells bring about.
Assay [1] relates to HeLa. The assay is described as follows: Cytotoxicity against human HeLa cells assessed as cell growth inhibition.
A further assay has as its system L1210. Put plainly: Cytotoxicity against mouse L1210 assessed as cell growth inhibition.
In assay [2] the test system is A549. The assay is described as follows: Antiproliferative activity against human A549 cells assessed as reduction in cell viability incubated for 72 hrs by SRB assay. Particulars: A549, 72 h. (In general: In SRB staining, fixed cells bind dye roughly in proportion to their protein.)
Another assay has as its system HT-29. Put plainly: Antiproliferative activity against human HT-29 cells assessed as reduction in cell viability incubated for 72 hrs by SRB assay. Particulars: HT-29, 72 h.
The subject of another assay is MDA-MB-231. Put plainly: Antiproliferative activity against human MDA-MB-231 cells assessed as reduction in cell viability incubated for 72 hrs by SRB assay. The settings on record: MDA-MB-231, 72 h.
The test system of a further assay is Bel-7402. The assay is described as follows: Cytotoxicity against human Bel-7402 cells assessed as reduction in cell growth incubated for 72 hrs measured by MTT assay. The settings on record: Bel-7402, 72 h.
The test system of assay [3] is HepG2. Put plainly: Antiproliferative activity against human HepG2 cells assessed as reduction in cell viability by CCK-8 assay.
Assay [4] relates to A549. Put plainly: Cytotoxicity against human A549 cells assessed as reduction in cell viability incubated for 48 hrs by MTT assay. Particulars: A549, 48 h.
Assay [5] deals with HCT-116. Put plainly: Cytotoxicity against human HCT-116 cells assessed as reduction in cell viability incubated for 48 hrs by MTT assay. Particulars: HCT-116, 48 h.
The subject of assay [6] is HeLa. Put plainly: Cytotoxicity against human HeLa cells assessed as reduction in cell viability incubated for 24 hrs by CCK-8 assay.
Assay [7] relates to A549. Put plainly: Cytotoxicity against human A549 cells assessed as reduction in cell viability incubated for 24 hrs by CCK-8 assay. Particulars: A549, 24 h.
Assay [8] concerns HCT-116. Put plainly: Antiproliferative activity against human HCT-116 cells assessed as reduction in cell growth.
For assay [9], the system named is A549. Put plainly: Antiproliferative activity against human A549 cells assessed as reduction in cell viability incubated for 72 hrs by CCK-8 assay. Particulars: A549, 72 h.
The next assay has as its system AGS. Put plainly: Antiproliferative activity against human AGS cells assessed as reduction in cell viability measured for 48 hrs by Cell-Titer Glo assay.
Assay [10] concerns MCF7. Put plainly: Antiproliferative activity against human MCF7 cells assessed as reduction in cell viability incubated for 72 hrs by MTT assay. The settings on record: MCF7, 72 h.
Assay [11] has as its system HCT-116. The assay is described as follows: Cytotoxicity against human HCT-116 cells assessed as reduction in cell viability incubated for 24 hrs by MTT assay. Particulars: HCT-116, 24 h.
The next assay concerns HEK293. The assay is described as follows: Cytotoxicity against HEK293 cells assessed as cell growth inhibition. Particulars: Homo sapiens.
Another assay deals with RKO. Put plainly: Cytotoxicity against human RKO cells assessed as inhibition of cell growth measured after 48 hrs by MTT assay.
Assay [12] relates to A549. Put plainly: Cytotoxicity against human A549 cells assessed as inhibition of cell growth incubated for 72 hrs by SRB assay. Particulars: A549, 72 h.
Assay [13] deals with MCF7. Put plainly: Cytotoxicity against human MCF7 cells assessed as inhibition of cell growth incubated for 72 hrs by SRB assay. The settings on record: MCF7, 72 h.
The subject of the next assay is SF-268. Put plainly: Cytotoxicity against human SF-268 cells assessed as inhibition of cell growth incubated for 72 hrs by SRB assay. Particulars: SF-268, 72 h.
For assay [14], the system named is HepG2. Put plainly: Cytotoxicity against human HepG2 cells assessed as inhibition of cell growth incubated for 72 hrs by SRB assay. Particulars: HepG2, 72 h.
Assay [15] in a line: Cytotoxicity against human AML1 cells expressing FLT3-ITD mutant assessed as cell viability.

For the molecule `COc1ccc2c3c([nH]c2c1)[C@H](C=C(C)C)N1C(=O)[C@@H]2CCCN2C(=O)[C@]1(O)[C@H]3O`, the half-inhibitory concentration (IC50) in the assay on PC-3 worked out at 6.56 µM; with U-937, 1.82 µM.
The corresponding values for `COc1ccc2c3c(n(CC=C(C)C)c2c1)[C@H](C=C(C)C)N1C(=O)[C@@H]2CCCN2C(=O)[C@]1(O)[C@H]3O` are 43.4 µM and 14.1 µM.
As to `CC1(C)C=Cc2c(ccc3c2N(O)C(=O)[C@@]32C[C@@]34NC(=O)[C@]5(CCCN5C3=O)C[C@H]4C2(C)C)O1`, the IC50 in the assay with HeLa [1] came to 27 µg/mL (≈ 58.2 µM); in the assay with L1210, 29 µg/mL (≈ 62.6 µM).
Consider `CN1C[C@@H](c2c[nH]c3cc(Br)ccc23)NC[C@@H]1c1c[nH]c2cc(Br)ccc12`, for which the values for the half-maximal inhibitory concentration (IC50) in the assay with A549 [2], in the assay on HT-29 and in the assay with MDA-MB-231 were 3.1 µM, 3.3 µM and 3.8 µM, respectively.
In the case of `C[C@H]1CCN2C[C@]34CC5(C(=O)Nc6c5ccc5c6OC=CC(C)(C)O5)C(C)(C)[C@@H]3C[C@]12C(=O)N4C` (some centres not stated), in the assay on Bel-7402, the IC50 came out at 1.9 µM.
On to `CS[C@@]12CC3=CC=C[C@H](OC(C)=O)[C@H]3N1C(=O)[C@]1(SC)CC3=CC=C[C@H](O)[C@H]3N1C2=O`, for which, in the assay with HepG2 [3], the concentration for half-maximal inhibition (IC50) was 21 µg/mL (≈ 45.6 µM).
As to `C[C@H]1CCN2C[C@]34CC5(C(=O)Nc6c5cc(O)c5c6OC=CC(C)(C)O5)C(C)(C)[C@@H]3C[C@]12C(=O)N4C` (some centres not stated), in the assay with Bel-7402, the IC50 stood at 3.3 µM.
Turning to `COc1ccc(C[C@H]2NC(=O)[C@@H](CC(C)C)NC2=O)cc1O`, the IC50 was 35.4 µg/mL (≈ 116 µM) in the assay with A549 [4] and 75.4 µg/mL (≈ 246 µM) in the assay with HCT-116 [5].
Take `CC[C@H](C)[C@]1(O)NC(=O)[C@@H](Cc2ccccc2)N2C(=O)C3=C(NC21)OC=CC=C3` (some centres not stated): the IC50 in the assay on HeLa [6] is 114 µM; in the assay with A549 [7], 61 µM.
In the case of `CS[C@@]12CC3=CC=CC[C@H]3N1C(=O)[C@]1(SC)CC3=CC=C[C@H](OC(C)=O)[C@H]3N1C2=O`, the 50% inhibitory concentration (IC50) in the assay with HepG2 [3] stood at 48 µg/mL (≈ 108 µM).
On to `CC(=O)O[C@H]1C=COC=C2C[C@@]34SS[C@]5(Cc6ccccc6N5C3=O)C(=O)N4[C@@H]21`, for which the 50% inhibitory concentration (IC50) in the assay with HCT-116 [8] came out at 52 µM; in the assay on A549 [9] it was 23 µM; in the assay on AGS it was 29 µM; in the assay with MCF7 [10], 31 µM.
Regarding `CN1C(=O)[C@]2(S)CC3=CC=C[C@H](O)[C@H]3N2C(=O)[C@]1(S)CO`, the results for the concentration for half-maximal inhibition (IC50) with HCT-116 [11], with HEK293 and in the assay with RKO were 0.43 µM, 1.26 µM and 0.41 µM, respectively.
In the case of `CN1C(=O)[C@@]23CSC4=C(C(=O)c5ccccc5C4=O)N2C[C@@H]1CO3`, the half-inhibitory concentration (IC50) in the assay on A549 [12] came to 13.5 µM; in the assay on MCF7 [13] it was 20.7 µM; in the assay with SF-268, 11.9 µM; in the assay on HepG2 [14] it was 12 µM.
Regarding `CC1(C)C=Cc2c(ccc3c2N[C@@]24N5C(=O)[C@@H]6CCCN6C(=O)[C@]5(O)C[C@@]32O[C@H](CO)C4(C)C)O1`, the half-inhibitory concentration (IC50) in assay [15] was 7.2 µM.
On to `CS[C@@]12CC3=CC=C[C@H](OC(C)=O)[C@H]3N1C(=O)[C@]1(SC)CC3=CC=C[C@H](OC(C)=O)[C@H]3N1C2=O`, for which the IC50 with HepG2 [3] came to 42 µg/mL (≈ 83.6 µM).
As to `C=CC(C)(C)[C@]1(C[C@H]2NC(=O)[C@H]3CCCN3C2=O)C(=O)Nc2c1ccc1c2C=CC(C)(C)O1`, the IC50 with HeLa [1] was found to be 50 µg/mL (≈ 111 µM); in the assay with L1210, 22 µg/mL (≈ 48.9 µM).

What is called IC50 is the concentration at which inhibition is half-maximal.
